# Results from PMC9186373, “Design, synthesis, and biological evaluation of novel carbazole derivatives as potent DNMT1 inhibitors with reasonable PK properties” (Journal of Enzyme Inhibition and Medicinal Chemistry, 2022).
# How the values were obtained:
# [1] = test system: human DNMT1; assay: ELISA EpiQuik DNA methyltransferase (DNMT) activity/inhibitor assay; type: biochemical; conditions: for Inh% at 50 μM: 50 μM compound; for Inh% at 50 μM / Inh% at 100 μM: 200 nM purified DNMT1, EpiQuik kit; for Inh% at 100 μM: 100 μM compound; for DNMT1 inhibitory activity: SAR discussion of Table 1
# Procedure: All the compounds were first screened using an ELISA EpiQuik DNA methyltransferase (DNMT) activity/inhibitor assay kit (Epigentek). To measure the effects of the compounds on human DNMT1 activity, 200 nM purified DNMT1 was incubated with 50 µM and 100 µM of the different compounds and S-adenosylmethionine in the DNMT assay buffer in the assay plate at 37 °C for 2 h[36]. Next, every sample was incubated with the capture and detection antibody, followed by incubation with developer solution for 10 min at room temperature. The absorbance was measured at 450 nm using a POLARstar Omega microplate reader (BMG). S-Adenosylhomocysteine (AdoHcy) was used as a positive control. Methylation inhibition assays for EZH2, LSD, and G9a were performed in modified Tris, pH 9.0, buffer using AlphaLisa technology. An amount of 10 µL of the reaction system contained a corresponding concentration of SAM (Sigma) (EZH2 50 µM, LSD 50 µM, and G9a 50 µM), which was the Km value in each enzymatic reaction, plus 100 nM biotinylated peptide H3 (1–21) (synthesis by GLChina) and the relevant enzyme concentration (0.03 nM EZH2, 0.03 nM LSD, and 0.03 nM G9a). The proteins were preincubated with various compound concentrations for 15 min at room temperature before the substrate and SAM were added. After 60 min of incubation at room temperature, acceptor and donor AlphaLisa beads were added according to the manufacturer’s recommendations. The signals were read in Alpha mode with an EnSpire multimode plate reader (PerkinElmer). IC50 values were derived by fitting the data for the inhibition percentage to a dose-response curve by non-linear regression in GraphPad Prism 5.0[20].
# DNMT1 inhibition test was performed on 30 candidates to verify their biochemical activities. The EpiQuik DNA methyl-transferase (DNMT) activity/inhibitor assay kit (Epigentek) was used to identify the activity of synthetic compounds.
# [2] = target: DNMT1 (Homo sapiens, UniProt P26358); assay: H3-labelled radioactive methylation assay; type: biochemical; conditions: H3-labeled radioactive methylation assay; 40 nM DNMT1
# Procedure: The DNMT1 radioactive methylation inhibition assays were performed in 30 µL reactions containing 0.1 µM adenosyl-L-methionine S-[methyl-^3H] (^3H-SAM, ^15 Ci/mmol, PerkinElmer), 0.25 µg/mL poly (dI-dC)·poly (dI-dC) (Sigma), 40 nM DNMT1 in 50 mM Tris-HCl, pH 8.0, 1 mM DTT, 5% glycerol, and 100 µg/mL BSA. The proteins were preincubated with a range of compound concentrations for 15 min at room temperature before adding the substrate and [^3H] SAM. After 60 min of incubation at 37 °C, the reaction systems were transferred to a MultiScreen HTS filter plate (Millipore), and the plate was washed 3 times with doubly distilled H2O via a vacuum. The radioactivity was determined by liquid scintillation counting (MicroBeta, PerkinElmer). IC50 values were derived by fitting the data for the inhibition percentage to a dose-response curve by non-linear regression in GraphPad Prism 5.0.
# To quantitatively analyse DNMT1 inhibitory effect, the H^3-labelled radioactive methylation assay was conducted to measure the methyltransferase activity of DNMT1 at a range of concentrations for these compounds.
# [3] = PK study in SD rats; type: in vivo; conditions: rat, plasma, SD male rats; for AUC(0-t) / Tmax / half-life: mean ± SD (n = 3)
# Procedure: In vivo pharmacokinetic properties of WK-22, WK-23, WK-27, and DC_517 were performed by Medicilon Company, Shanghai, China. SPF-grade SD male rats (8 groups, n = 3 rats per group) with a body weight of 230–260 g were purchased from Shanghai SIPPR-BK LAB Animal Ltd., Shanghai, China, and used for the pharmacokinetic analysis of the tested compounds. All animals were deprived of food overnight after the cannulation surgery. Subsequently, the tested compounds WK-23 and DC_517 were dissolved/suspended in 5% DMSO, 10% Solutol, and 85% water, and the tested compounds WK-22 and WK-27 were dissolved/suspended in 5% DMSO, 40% PEG400, and 55% saline for intravenous administration (i.v.) and oral administration (p.o.), respectively. A final dosage of 2.0 and 10.0 mg/kg rat of the formulated compounds was administered for i.v. and p.o. purposes, respectively, and the blood samples were taken at various time points during a 24 h period. At different time points, blood samples were collected from the femoral vein. The plasma samples were obtained after centrifugation (6800 g, 6 min, 2–8 °C) and stored at −80 °C until the assay. The AUC (area under concentration-time curve) was calculated through the trapezoidal rule with extrapolation to time infinity. The concentration of the compounds in the blood was analysed by LC-MS/MS (Shimadzu liquid chromatographic system and SCIEX Triple Quad 5500+ mass spectrometer, Applied Biosystems, Ontario, Canada). The Tmax, T1/2, and Cmax value was obtained through visual inspection of the plasma concentration-time curve. The Vss value was generated from DAS 3.2.8 software. The F value of WK-23 was calculated with the formula: F = (AUC p.o. × Dose i.v.)/(AUC i.v. × Dose p.o.) × 100%.
# DNMT1, sequence (P26358 whole entry): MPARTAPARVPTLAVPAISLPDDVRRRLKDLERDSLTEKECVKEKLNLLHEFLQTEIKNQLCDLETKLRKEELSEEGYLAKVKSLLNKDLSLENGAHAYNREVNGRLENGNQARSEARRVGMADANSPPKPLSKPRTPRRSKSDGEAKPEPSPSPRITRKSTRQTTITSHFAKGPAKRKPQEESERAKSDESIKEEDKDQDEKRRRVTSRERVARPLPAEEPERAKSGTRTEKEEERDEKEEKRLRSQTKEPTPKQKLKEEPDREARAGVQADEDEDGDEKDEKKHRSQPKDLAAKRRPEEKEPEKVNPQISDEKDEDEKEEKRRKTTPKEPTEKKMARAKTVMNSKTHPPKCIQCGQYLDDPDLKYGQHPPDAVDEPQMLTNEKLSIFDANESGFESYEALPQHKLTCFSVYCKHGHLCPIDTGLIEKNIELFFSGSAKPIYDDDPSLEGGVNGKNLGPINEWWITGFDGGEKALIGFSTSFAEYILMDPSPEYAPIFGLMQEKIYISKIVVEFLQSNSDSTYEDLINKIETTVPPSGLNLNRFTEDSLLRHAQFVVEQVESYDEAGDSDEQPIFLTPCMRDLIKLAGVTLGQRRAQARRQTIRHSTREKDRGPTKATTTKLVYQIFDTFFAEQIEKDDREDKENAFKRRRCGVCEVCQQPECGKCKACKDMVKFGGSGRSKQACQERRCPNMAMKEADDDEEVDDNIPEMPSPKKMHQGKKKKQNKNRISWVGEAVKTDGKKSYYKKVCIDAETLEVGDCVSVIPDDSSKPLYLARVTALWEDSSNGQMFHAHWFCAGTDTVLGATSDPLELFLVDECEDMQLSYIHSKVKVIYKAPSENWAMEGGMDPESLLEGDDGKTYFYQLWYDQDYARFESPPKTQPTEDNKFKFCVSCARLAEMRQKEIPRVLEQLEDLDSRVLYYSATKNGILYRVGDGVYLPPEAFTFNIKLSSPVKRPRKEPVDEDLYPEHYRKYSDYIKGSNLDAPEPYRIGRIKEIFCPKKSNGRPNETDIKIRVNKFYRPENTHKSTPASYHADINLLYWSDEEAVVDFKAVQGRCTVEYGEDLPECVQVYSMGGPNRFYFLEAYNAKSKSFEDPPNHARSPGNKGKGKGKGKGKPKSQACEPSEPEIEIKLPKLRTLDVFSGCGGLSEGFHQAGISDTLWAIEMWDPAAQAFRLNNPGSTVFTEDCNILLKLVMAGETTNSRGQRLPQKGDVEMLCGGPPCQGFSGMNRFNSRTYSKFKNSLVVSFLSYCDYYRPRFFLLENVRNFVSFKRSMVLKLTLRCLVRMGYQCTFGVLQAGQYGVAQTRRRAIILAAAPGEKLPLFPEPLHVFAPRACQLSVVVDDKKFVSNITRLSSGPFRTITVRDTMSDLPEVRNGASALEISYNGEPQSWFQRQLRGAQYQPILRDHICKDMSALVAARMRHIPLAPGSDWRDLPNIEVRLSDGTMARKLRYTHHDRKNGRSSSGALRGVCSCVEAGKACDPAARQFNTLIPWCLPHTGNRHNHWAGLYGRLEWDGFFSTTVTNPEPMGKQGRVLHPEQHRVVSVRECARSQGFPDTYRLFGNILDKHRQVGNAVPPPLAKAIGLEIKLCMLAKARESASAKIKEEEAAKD
SMILES,melting point,Inh% at 50 μM [1],Inh% at 100 μM [1],other results
"OC(CNCCc1c[nH]c2ccccc12)COC(Cn1c2ccccc2c2cc(F)ccc21)Cn1c2ccc(F)cc2c2cc(F)ccc21 (centres unmarked) [WK-28, 1-((2-(1H-indol-3-yl)ethyl)amino)-3-((1-(3,6-difluoro-9H-carbazol-9-yl)-3-(3-fluoro-9H-carbazol-9-yl)propan-2-yl)oxy)propan-2-ol]",113 to 115 °C,91%,91%,
"OC(CNCCc1c[nH]c2ccccc12)Cn1c2ccccc2c2cccnc21 (centres unmarked) [WK-21, 1-((2-(1H-indol-3-yl)ethyl)amino)-3-(9H-pyrido[2,3-b]indol-9-yl)propan-2-ol]",107 to 109 °C,39%,34%,
"OC(CNCCc1c[nH]c2ccccc12)Cn1c2ccccc2c2ccncc21 (centres unmarked) [WK-20, 1-((2-(1H-indol-3-yl)ethyl)amino)-3-(9H-pyrido[3,4-b]indol-9-yl)propan-2-ol]",85 to 87 °C,68%,77%,
"Oc1ccc(CCNCC(O)Cn2c3ccccc3c3cc(F)ccc32)cc1 (centres unmarked) [WK-3, 4-(2-((3-(3-Fluoro-9H-carbazol-9-yl)-2-hydroxypropyl)amino)ethyl)phenol]",140 to 142 °C,71%,79%,IC50 [2]: 27 µM
"OC(CNCCc1c[nH]c2ccccc12)Cn1c2ccccc2c2ccccc21 (centres unmarked) [DC_05, reference compound]",,43%,88%,IC50 [2]: 52 µM
"COc1ccccc1OCCNCC(O)Cn1c2ccc(F)cc2c2cc(F)ccc21 (centres unmarked) [WK-16, 1-(3,6-Difluoro-9H-carbazol-9-yl)-3-((2-(2-methoxyphenoxy)ethyl)amino) propan-2-ol]",93 to 95 °C,27%,46%,
"CCCCOCCCNCC(O)COC(Cn1c2ccccc2c2cc(F)ccc21)Cn1c2ccc(F)cc2c2cc(F)ccc21 (centres unmarked) [WK-29, 1-((3-Butoxypropyl)amino)-3-((1-(3,6-difluoro-9H-carbazol-9-yl)-3-(3-fluoro-9H-carbazol-9-yl)propan-2-yl)oxy)propan-2-ol]",151 to 153 °C,85%,80%,
"CC(C)(C)OC(=O)N1CCN(CC(O)COC(Cn2c3ccccc3c3cc(F)ccc32)Cn2c3ccc(F)cc3c3cc(F)ccc32)C[C@@H]1CO (stereo partly drawn) [WK-26, (2R)-tert-butyl 4-(3-((1-(3,6-difluoro-9H-carbazol-9-yl)-3-(3-fluoro-9H-carbazol-9-yl)propan-2-yl)oxy)-2-hydroxypropyl)-2-(hydroxymethyl)piperazine-1-carboxylate]",74 to 76 °C,8.7%,−16%,DNMT1 inhibitory activity [1]: lost its activity
"OC(CNCCc1ccc(F)cc1)Cn1c2ccccc2c2cc(F)ccc21 (centres unmarked) [WK-2, 1-(3-Fluoro-9H-carbazol-9-yl)-3-((4-fluorophenethyl)amino)propan-2-ol]",109 to 111 °C,55%,66%,
"COc1ccccc1OCCNCC(O)Cn1c2ccccc2c2cc(F)ccc21 (centres unmarked) [WK-4, 1-(3-fluoro-9H-carbazol-9-yl)-3-((2-(2-methoxyphenoxy)ethyl)amino) propan-2-ol]",55 to 57 °C,56%,60%,
"CC(C)(C)OC(=O)N1CCN(CC(O)Cn2c3ccccc3c3cc(F)ccc32)C[C@H]1CO (stereo partly drawn) [WK-10, (2S)-tert-butyl 4-(3-(3-fluoro-9H-carbazol-9-yl)-2-hydroxypropyl)-2-(hydroxymethyl)piperazine-1-carboxylate]",71 to 73 °C,5.1%,−9.0%,
"CC(O)CNCC(O)Cn1c2ccc(F)cc2c2cc(F)ccc21 (centres unmarked) [WK-18, 1-(3,6-Difluoro-9H-carbazol-9-yl)-3-((2-hydroxypropyl)amino)propan-2-ol]",130 to 132 °C,70%,87%,IC50 [2]: 10 µM
"CC(O)CNCC(O)Cn1c2ccccc2c2cc(F)ccc21 (centres unmarked) [WK-6, 1-(3-Fluoro-9H-carbazol-9-yl)-3-((2-hydroxypropyl)amino)propan-2-ol]",118 to 120 °C,68%,79%,
"CCCCOCCCNCC(O)Cn1c2ccccc2c2cc(F)ccc21 (centres unmarked) [WK-5, 1-((3-Butoxypropyl)amino)-3-(3-fluoro-9H-carbazol-9-yl)propan-2-ol]",71 to 73 °C,59%,65%,
"OC(CNCc1ccc(F)cc1)Cn1c2ccccc2c2cc(F)ccc21 (centres unmarked) [WK-9, 1-(3-Fluoro-9H-carbazol-9-yl)-3-((4-fluorobenzyl)amino)propan-2-ol]",130 to 132 °C,25%,53%,
"OC(CNC1CC1)COC(Cn1c2ccccc2c2cc(F)ccc21)Cn1c2ccccc2c2cc(F)ccc21 (centres unmarked) [WK-24, 1-((1,3-Bis(3-fluoro-9H-carbazol-9-yl)propan-2-yl)oxy)-3-(cyclopropylamino)propan-2-ol]",57 to 59 °C,2.3%,2.6%,DNMT1 inhibitory activity [1]: inactive
"C[C@@H](CNCC(O)Cn1c2ccccc2c2cc(F)ccc21)c1ccccc1 (stereo partly drawn) [WK-8, 1-(3-Fluoro-9H-carbazol-9-yl)-3-(((R)-2-phenylpropyl)amino)propan-2-ol]",100 to 102 °C,16%,58%,
"CCCCOCCCNCC(O)Cn1c2ccc(F)cc2c2cc(F)ccc21 (centres unmarked) [WK-17, 1-((3-butoxypropyl)amino)-3-(3,6-difluoro-9H-carbazol-9-yl)propan-2-ol]",94 to 96 °C,73%,79%,
"OC[C@@H]1CN(CC(O)Cn2c3ccccc3c3cc(F)ccc32)CCN1 (stereo partly drawn) [WK-11, 1-(3-Fluoro-9H-carbazol-9-yl)-3-((S)-3-(hydroxymethyl)piperazin-1-yl)propan-2-ol]",35 to 37 °C,41%,50%,
"OC(CNCCc1c[nH]c2ccccc12)COC(Cn1c2ccccc2c2ccccc21)Cn1c2ccccc2c2ccccc21 (centres unmarked) [DC_517, reference compound]",,96%,98%,"AUC(0-t) ([3]; iv, i.v. (2 mg/kg)): 1020 ± 60.9 ng·h/mL; Tmax ([3]; iv, i.v. (2 mg/kg)): 0.08 h; half-life ([3]; iv, i.v. (2 mg/kg)): 6.7 ± 0.2 h; bioavailability ([3]; po, p.o. 10 mg/kg vs i.v. 2 mg/kg, F = (AUC p.o. × Dose i.v.)/(AUC i.v. × Dose p.o.) × 100%): 38.7 ± 2.9%; AUC(0-t) ([3]; po, p.o. (10 mg/kg)): 2080 ± 113 ng·h/mL; Tmax ([3]; po, p.o. (10 mg/kg)): 6 h; half-life ([3]; po, p.o. (10 mg/kg)): 6.7 ± 0.9 h; IC50 [2]: 2.3 µM"
